# Molecular target: T1, Human TREX1 enzyme (amino acids 1-242) (Homo sapiens, UniProt Q9NSU2)
# T1 construct: Human TREX1 enzyme (amino acids 1-242)
# T1 sequence (Q9NSU2 1-242): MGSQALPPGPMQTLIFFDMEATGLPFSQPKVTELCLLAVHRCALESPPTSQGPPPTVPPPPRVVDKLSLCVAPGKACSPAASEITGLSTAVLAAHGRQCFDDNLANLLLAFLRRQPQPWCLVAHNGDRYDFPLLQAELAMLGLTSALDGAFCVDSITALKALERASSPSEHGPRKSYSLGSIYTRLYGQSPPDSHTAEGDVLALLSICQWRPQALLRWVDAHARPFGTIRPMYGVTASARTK
# Assay: Human TREX1 enzymatic assay with dsDNA native oligonucleotide (Picogreen fluorescence)
# Format: biochemical
# Details: 2 mM dithiothreitol in assay buffer; 50 nM dsDNA oligonucleotide; 30 min preincubation at 25° C.; read-out: TREX1/Human + DTT IC50 AVG
# Summary of the method: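 TREX1 (0.8–0.16 nM final) preincubated with compound (300 μM–13 nM or 30 μM–1.5 nM, 2% DMSO) 30 min at 25 °C in Tris pH 7.7, 5 mM MgCl2, 2 mM DTT. Annealed dsDNA (50 nM) added for 5–15 min at 25 °C; EDTA quench with Picogreen fluorescence readout.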
row,SMILES,IC50 [µM]
1,"O=C(O)c1ccc(-c2nc3cc(N4CCC4)ccc3[nH]2)cc1O [Example 114, 4-(5-(azetidin-1-yl)-1H-benzo[d]imidazol-2-yl)-2-hydroxybenzoic acid]",10 to 100
2,"COc1cc(-c2nc3ccc(N4CCOCC4)cc3n2C2CCOC2)cc(O)c1O (stereo not shown) [Example 83, 3-methoxy-5-(6-morpholino-1-(tetrahydrofuran-3-yl)-1H-benzo[d]imidazol-2-yl)benzene-1,2-diol]",10 to 100
3,"COc1cc(-c2nc3cc(N4CCOCC4)ccc3[nH]2)cc(C(=O)O)c1O [Example 151, 2-hydroxy-3-methoxy-5-(5-morpholino-1H-benzo[d]imidazol-2-yl)benzoic acid]",10 to 100
4,"COc1cc(-c2nc3cc(N4CC(C)C4)ccc3[nH]2)cc(O)c1O [Example 143, 3-methoxy-5-(5-(3-methylazetidin-1-yl)-1H-benzo[d]imidazol-2-yl)benzene-1,2-diol]",> 100
5,"O=C(O)c1ccc(-c2nc3ccncc3[nH]2)c(F)c1O [Example 147, 3-fluoro-2-hydroxy-4-(3H-imidazo[4,5-c]pyridin-2-yl)benzoic acid]",> 100
6,"CCNc1ccc2c(c1)nc(-c1cc(OC)c(O)c(O)c1F)n2C1(C)COC1 [Example 223, 4-(5-(ethylamino)-1-(3-methyloxetan-3-yl)-1H-benzo[d]imidazol-2-yl)-3-fluoro-6-methoxybenzene-1,2-diol]",0.1 to 1
7,"COc1cc(-c2nc3cc(-c4ccccn4)ccc3[nH]2)c(C)c(O)c1O [Example 289, 6-methoxy-3-methyl-4-[5-(pyridin-2-yl)-1H-1,3-benzodiazol-2-yl]benzene-1,2-diol]",1 to 10
8,"O=C(O)c1ccc(-c2nc3ccccc3n2C2COC2)c(C(F)(F)F)c1O [Example 161, 2-hydroxy-4-(1-(oxetan-3-yl)-1H-benzo[d]imidazol-2-yl)-3-(trifluoromethyl)benzoic acid]",> 100
9,"COc1cc(-c2nc3ccccc3n2C2CCCC2)c(C)c(O)c1O [Example 148, 4-(1-cyclopentyl-1H-benzo[d]imidazol-2-yl)-6-methoxy-3-methylbenzene-1,2-diol]",1 to 10
10,"COc1cc(-c2nc3cc(N4CCN(C(=O)c5cccc(Cl)c5)CC4)ccc3[nH]2)cc(O)c1O [Example 123, (3-chlorophenyl)(4-(2-(3,4-dihydroxy-5-methoxyphenyl)-1H-benzo[d]imidazol-5-yl)piperazin-1-yl)methanone]",10 to 100
11,"COc1cc(-c2nc3cc(N4CCC4)c(C)cc3[nH]2)cc(O)c1O [Example 164, 5-(5-(azetidin-1-yl)-6-methyl-1H-benzo[d]imidazol-2-yl)-3-methoxybenzene-1,2-diol]",1 to 10
12,COc1cc(-c2nc3ccc(-c4cn[nH]c4)cc3n2C2(C)COC2)c(F)c(O)c1O [Example 194],≤ 0.1
13,"COc1cc(-c2nc3ccc(-c4ncc(F)cn4)cc3n2C2(C)COC2)c(F)c(O)c1O [Example 270, 3-fluoro-4-(6-(5-fluoropyrimidin-2-yl)-1-(3-methyloxetan-3-yl)-1H-benzo[d]imidazol-2-yl)-6-methoxybenzene-1,2-diol]",≤ 0.1
14,"COc1cc(-c2nc3cc(N4CCC4)ccc3n2C2COC2)c(C)c(O)c1O [Example 187, 4-(5-(azetidin-1-yl)-1-(oxetan-3-yl)-1H-benzo[d]imidazol-2-yl)-6-methoxy-3-methylbenzene-1,2-diol]",1 to 10
15,"COc1cc(-c2nc3cc(N4CCN(c5cccnc5)CC4)ccc3[nH]2)cc(O)c1O [Example 62, 3-methoxy-5-(5-(4-(pyridin-3-yl)piperazin-1-yl)-1H-benzo[d]imidazol-2-yl)benzene-1,2-diol]",1 to 10
16,"COc1cc(-c2nc3ccc(N4CCOC4=O)cc3n2C2(C)COC2)c(F)c(O)c1O [Example 276, 3-(2-(2-fluoro-3,4-dihydroxy-5-methoxyphenyl)-1-(3-methyloxetan-3-yl)-1H-benzo[d]imidazol-6-yl)oxazolidin-2-one]",≤ 0.1
17,"COc1cc(-c2nc3ccc(-c4cnn(C)c4)cc3n2C2(C)COC2)c(F)c(O)c1O [Example 265, 3-fluoro-6-methoxy-4-(6-(1-methyl-1H-pyrazol-4-yl)-1-(3-methyloxetan-3-yl)-1H-benzo[d]imidazol-2-yl)benzene-1,2-diol]",≤ 0.1
18,"COc1cc(-c2nc3ccc(-c4ncccn4)cc3n2C2(C)COC2)c(F)c(O)c1O [Example 267, 3-fluoro-6-methoxy-4-(1-(3-methyloxetan-3-yl)-6-(pyrimidin-2-yl)-1H-benzo[d]imidazol-2-yl)benzene-1,2-diol]",≤ 0.1
19,"C=CCCC(=O)N1CCN(c2ccc3[nH]c(-c4cc(O)c(O)c(OC)c4)nc3c2)CC1 [Example 33, 1-(4-(2-(3,4-dihydroxy-5-methoxyphenyl)-1H-benzo[d]imidazol-5-yl)piperazin-1-yl)pent-4-en-1-one]",10 to 100

row,SMILES,IC50 [µM]
1,"COc1cc(-c2nc3cc(N4CCCCC4)ccc3[nH]2)cc(O)c1O [Example 48, 3-methoxy-5-(5-(piperidin-1-yl)-1H-benzo[d]imidazol-2-yl)benzene-1,2-diol]",> 100
2,"O=C(O)c1cc(-c2nc3cc(N4CCC4)ccc3[nH]2)ccc1O [Example 115, 5-(5-(azetidin-1-yl)-1H-benzo[d]imidazol-2-yl)-2-hydroxybenzoic acid]",10 to 100
3,"COc1cc(-c2nc3ccc(N4CCOCC4)cc3n2C2CCOC2)c(C)c(O)c1O (stereo not shown) [Example 286, 6-methoxy-3-methyl-4-(6-morpholino-1-(tetrahydrofuran-3-yl)-1H-benzo[d]imidazol-2-yl)benzene-1,2-diol]",1 to 10
4,"COc1cc(-c2nc3nc(N4CCOCC4)ccc3[nH]2)cc(O)c1O [Example 94, 3-methoxy-5-(5-morpholino-1H-imidazo[4,5-b]pyridin-2-yl)benzene-1,2-diol]",10 to 100
5,"COc1cc(-c2nc3cc(N4CCC4)ccc3[nH]2)cc(C(=O)O)c1O [Example 6, 5-[6-(azetidin-1-yl)-1H-benzimidazol-2-yl]-2-hydroxy-3-methoxybenzoic acid]",1 to 10
6,"CNc1ccc2c(c1)nc(-c1cc(OC)c(O)c(O)c1F)n2C1(C)COC1 [Example 316, 3-fluoro-6-methoxy-4-(5-(methylamino)-1-(3-methyloxetan-3-yl)-1H-benzo[d]imidazol-2-yl)benzene-1,2-diol]",0.1 to 1
7,"COc1cc(-c2nc3cc(N4CCN(C(=O)c5ccc(C(F)(F)F)cc5)CC4)ccc3[nH]2)cc(O)c1O [Example 102, (4-(2-(3,4-dihydroxy-5-methoxyphenyl)-1H-benzo[d]imidazol-5-yl)piperazin-1-yl)(4-(trifluoromethyl)phenyl)methanone]",> 100
8,"COc1cc(-c2nc3ccncc3n2C2(C)COC2)c(F)c(O)c1O [Example 230, 3-fluoro-6-methoxy-4-[3(3-methyloxetan-3-yl)-3H-imidazo[4,5-c]pyridin-2-yl]benzene-1,2-diol]",0.1 to 1
9,"COCCN1CCN(c2ccc3[nH]c(-c4cc(O)c(O)c(OC)c4)nc3c2)CC1 [Example 61, 3-methoxy-5-(5-(4-(2-methoxyethyl)piperazin-1-yl)-1H-benzo[d]imidazol-2-yl)benzene-1,2-diol]",> 100
10,COc1cc(-c2cc3ccccc3n2C2(C)COC2)c(C)c(O)c1O [Example 220],0.1 to 1
11,"COc1cc(-c2nc3cc(N4CCN(C(=O)c5ccccc5-c5ccccc5)CC4)ccc3[nH]2)cc(O)c1O [Example 105, [1,1′-biphenyl]-2-yl(4-(2-(3,4-dihydroxy-5-methoxyphenyl)-1H-benzo[d]imidazol-5-yl)piperazin-1-yl)methanone]",> 100
12,"COc1cc(-c2nc3cc(N4CCN(C(=O)c5ccc(C)cc5C)CC4)ccc3[nH]2)cc(O)c1O [Example 100, (4-(2-(3,4-dihydroxy-5-methoxyphenyl)-1H-benzo[d]imidazol-5-yl)piperazin-1-yl)(2,4-dimethylphenyl)methanone]",> 100
13,"COc1cc(-c2nc3nc(N4CCOCC4)ncc3[nH]2)cc(O)c1O [Example 80, 3-methoxy-5-(2-morpholino-7H-purin-8-yl)benzene-1,2-diol]",> 100
14,"COc1cc(-c2nc3cc(N4CCN(C)CC4)ccc3n2C)cc(O)c1O [Example 35, 3-methoxy-5-(1-methyl-5-(4-methylpiperazin-1-yl)-1H-benzo[d]imidazol-2-yl)benzene-1,2-diol]",> 100
15,"COc1cc(-c2nc3cc(N4CCN(C)CC4=O)ccc3n2C2(C)COC2)c(F)c(O)c1O [Example 273, 1-(2-(2-fluoro-3,4-dihydroxy-5-methoxyphenyl)-1-(3-methyloxetan-3-yl)-1H-benzo[d]imidazol-5-yl)-4-methylpiperazin-2-one]",0.1 to 1
16,"COc1cc(-c2nc3ccccc3n2C2(C)COC2)c(OC(F)F)c(O)c1O [Example 217, 3-(difluoromethoxy)-6-methoxy-4-(1-(3-methyloxetan-3-yl)-1H-benzo[d]imidazol-2-yl)benzene-1,2-diol]",10 to 100
17,"COc1cc(-c2nc3cc(N4CC5(CN(C)C5)C4)ccc3[nH]2)cc(O)c1O [Example 152, 3-methoxy-5-(5-(6-methyl-2,6-diazaspiro[3.3]heptan-2-yl)-1H-benzo[d]imidazol-2-yl)benzene-1,2-diol]",> 100
18,"COc1cc(-c2nc3cc(N4CCCC4=O)ccc3n2C2(C)COC2)c(F)c(O)c1O [Example 190, 1-[2-(2-fluoro-3,4-dihydroxy-5-methoxyphenyl)-1-(3-methyloxetan-3-yl)-1H-1,3-benzodiazol-5-yl]pyrrolidin-2-one]",0.1 to 1

# Source: patent US20230234943A1, “TREX1 INHIBITORS AND USES THEREOF” (Tempest Therapeutics, Inc., priority 2020, published 2023)
